# Several values for one entry are separate records, joined by “and”; a condition that tells them apart may be missing. Equal values may be shown once. Read-outs that look alike come from different tables or passages of the source.
# Experiments:
# [1] = system: K. pneumoniae urease activity (whole cell); experiment: microbe, parasite or virus in culture; type: cell-based, Klebsiella pneumoniae ATCC 33495; conditions: artificial urine, 24 h; for K. pneumoniae urease-dependent pH change (pH): 37 °C
# [2] = system: S. aureus urease activity (whole cell); type: cell-based, Staphylococcus aureus; conditions: artificial urine, 24 h; for Staphylococcus aureus urease-dependent pH change (pH): 37 °C
# [3] = system: cellular Ni and Zn content of K. pneumoniae; experiment: Cellular metal analysis by ICP-MS (60Ni, 66Zn); type: cell-based, Klebsiella pneumoniae
# Method: The cellular Zn^2+ and Ni^2+ content of K. pneumoniae was carried out according to the method described by Maunders et al.[66] with some modifications. An overnight culture of K. pneumoniae was diluted 1/200 in LB medium (5 mL) and was either untreated or treated with 0.2 mM AMA or Zn-AMA. The cells were grown for 16 h at 37 °C, harvested by centrifugation, and washed twice with PBS containing 5 mM EDTA and twice with ultra-pure water. The cell pellet was subsequently digested in 0.25 mL 65% HNO3 at 80 °C for 30 minutes in borosilicate glass tubes using a water bath. The samples were diluted to 2% HNO3 and filtered through a 0.45 μm syringe filter. ^60Ni and ^66Zn were quantified using a Thermo iCAP Q ICP-MS.
# [4] = system: [NiFe]-hydrogenase (Hyd-3); experiment: Whole-cell [NiFe] hydrogenase assay (benzyl viologen reduction); type: cell-based, Klebsiella pneumoniae; design: Benzyl viologen hydrogenase assay (activity): unit not given here
# Source text: We reasoned that disruption of Ni^2+ uptake and homeostasis should also perturb the activity of other Ni-dependent enzymes. To examine this possibility, we tested the effects of free AMA and Zn-AMA on Ni-dependent hydrogen metabolism in bacteria. […] K. pneumoniae produces a single [NiFe]-hydrogenase (Hyd-3) as part of the H2-evolving formate hydrogenlyase (FHL) complex and is encoded by the hyc operon (Fig S8)[21]. […] To measure [NiFe]-hydrogenase-catalyzed H2 […], benzyl viologen was used as an artificial electron acceptor, as previously described. Although Hyd-3 is involved in the evolution of H2, previous work in E. coli has shown that it is responsible for 90% of the hydrogen-dependent benzyl viologen reduction in crude extracts and whole-cell assays[41]–[44].
# The whole-cell hydrogenase activity in K. pneumoniae was based on a modified method described by Lacasse et al.[41] […] The cell suspension was diluted 1/100 in LB supplemented with 0.8% glucose, 10 mM MgCl2, and 10 mM potassium phosphate, pH 7.2. […] Following an 18-hour incubation, whole-cell [NiFe] hydrogenase activity was monitored by adding benzyl viologen (1 mg/mL) to each well, followed by continuous monitoring of the change in absorbance at 630 nm using a BioTek Synergy H1 microplate reader in an anaerobic glove box.
# urease = target: T1, urease (Klebsiella pneumoniae subsp. pneumoniae, UniProt A6TE40+A6TE41+A6TE42); experiment: Urease activity in cell-free extracts (NH3 release, indophenol-hypochlorite); type: biochemical
# T1 construct: endogenous in cells; host or cells: Klebsiella pneumoniae (ATCC 33495), sonicated and cleared lysate
# Method: The cells were subsequently lysed by sonication, and cell debris was removed with centrifugation (20,000 × g, 10 min). […] Liberated NH3 was quantified using the indophenol-hypocholorite reaction as previously described. The total amount of protein was quantified by Bradford assay using bovine serum albumin as standard. Each assay was performed in duplicate wells.
# FIG S7 Evaluation of Zn-AMA as a direct inhibitor of urease. A) Checkerboard analysis of Zn-AMA and AHA on urease activity of K. […]
# Dose- […]
# response curves of fluorofamide, Zn-AMA, and AMA inhibiting the urease-catalyzed release of NH3 quantified with indophenol hypochlorite. The rates of NH3 production were measured over 20 min and were normalized to total protein concentration. Experiments were performed in duplicate. Individual replicates are shown as colored circles.
# K. pneumoniae [5] = type: cell-based, Klebsiella pneumoniae; conditions: for Growth curve (culture density): 50 μM
# K. pneumoniae [6] = type: cell-based, Klebsiella pneumoniae; conditions: 200 μM, 24 h exposure
# S. aureus = type: cell-based, Staphylococcus aureus; conditions: 200 μM, 24 h
# HEK293 cells = experiment: HEK293 cytotoxicity assay (Cell Titer Glo 2.0)
# [7] = K. pneumoniae treated with 200 μM
# T1 sequence (A6TE41 whole entry): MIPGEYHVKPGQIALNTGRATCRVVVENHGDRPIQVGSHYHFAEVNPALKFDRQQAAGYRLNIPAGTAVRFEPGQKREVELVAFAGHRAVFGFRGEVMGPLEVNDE
# T1 sequence (A6TE40 whole entry): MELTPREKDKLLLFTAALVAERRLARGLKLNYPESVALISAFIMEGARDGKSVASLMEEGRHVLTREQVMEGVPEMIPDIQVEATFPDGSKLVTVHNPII
# T1 sequence (A6TE42 whole entry): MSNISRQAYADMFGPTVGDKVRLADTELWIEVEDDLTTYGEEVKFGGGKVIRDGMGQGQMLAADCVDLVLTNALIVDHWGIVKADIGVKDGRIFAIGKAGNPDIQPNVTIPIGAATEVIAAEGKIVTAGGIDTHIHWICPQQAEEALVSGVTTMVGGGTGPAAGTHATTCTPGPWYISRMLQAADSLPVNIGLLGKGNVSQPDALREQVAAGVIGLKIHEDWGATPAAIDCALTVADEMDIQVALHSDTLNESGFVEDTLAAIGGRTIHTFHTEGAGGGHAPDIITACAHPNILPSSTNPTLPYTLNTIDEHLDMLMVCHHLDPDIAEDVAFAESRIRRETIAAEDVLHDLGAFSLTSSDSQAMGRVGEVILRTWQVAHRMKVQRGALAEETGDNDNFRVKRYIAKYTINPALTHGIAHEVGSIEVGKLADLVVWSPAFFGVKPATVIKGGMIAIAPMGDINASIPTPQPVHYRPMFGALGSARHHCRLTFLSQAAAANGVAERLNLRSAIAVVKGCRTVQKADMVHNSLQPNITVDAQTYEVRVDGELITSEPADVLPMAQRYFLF
smiles,measurement,setting,value
"N[C@@H](CN[C@@H](CN[C@@H](CC(=O)O)C(=O)O)C(=O)O)C(=O)O [AMA, aspergillomarasmine A]",K. pneumoniae urease-dependent pH change (pH),[1]; 0.19 μM,8.15 and 8.19
same,K. pneumoniae urease-dependent pH change (pH),[1]; 0.39 μM,8.16 and 8.12
same,K. pneumoniae urease-dependent pH change (pH),[1]; 0.78 μM,8.08 and 8.03
same,K. pneumoniae urease-dependent pH change (pH),[1]; 1.56 μM,7.97 and 7.75
same,K. pneumoniae urease-dependent pH change (pH),[1]; 3.12 μM,7.86 and 7.57
same,K. pneumoniae urease-dependent pH change (pH),[1]; 6.25 μM,7.81 and 7.46
same,K. pneumoniae urease-dependent pH change (pH),[1]; 12.5 μM,7.78 and 7.33
same,K. pneumoniae urease-dependent pH change (pH),[1]; 25 μM,7.75 and 7.40
same,K. pneumoniae urease-dependent pH change (pH),[1]; 50 μM,7.87 and 7.54
same,K. pneumoniae urease-dependent pH change (pH),[1]; 100 μM,8.02 and 7.77
same,K. pneumoniae urease-dependent pH change (pH),[1]; 200 μM,8.03 and 8.04
same,effect on urease activity,[1]; K. pneumoniae,did not significantly affect urease activity
same,Staphylococcus aureus urease-dependent pH change (pH),[2]; 0.19 μM,6.95 and 7.25
same,Staphylococcus aureus urease-dependent pH change (pH),[2]; 0.39 μM,6.96 and 7.10
same,Staphylococcus aureus urease-dependent pH change (pH),[2]; 0.78 μM,6.77 and 6.94
same,Staphylococcus aureus urease-dependent pH change (pH),[2]; 1.56 μM,6.69 and 6.68
same,Staphylococcus aureus urease-dependent pH change (pH),[2]; 3.12 μM,6.42 and 6.51
same,Staphylococcus aureus urease-dependent pH change (pH),[2]; 6.25 μM,6.40 and 6.45
same,Staphylococcus aureus urease-dependent pH change (pH),[2]; 12.5 μM,6.33 and 6.40
same,Staphylococcus aureus urease-dependent pH change (pH),[2]; 25 μM,6.33 and 6.38
same,Staphylococcus aureus urease-dependent pH change (pH),[2]; 50 μM,6.38
same,Staphylococcus aureus urease-dependent pH change (pH),[2]; 100 μM,6.31 and 6.37
same,Staphylococcus aureus urease-dependent pH change (pH),[2]; 200 μM,6.35 and 6.38
same,effect on urease activity,[2]; S. aureus,inhibited urease activity similarly
same,effect on intracellular Ni^2+ levels,"[3]; 200 μM, ICP-MS",reduced intracellular Ni^2+ levels
same,effect on intracellular Zn^2+ levels,"[3]; 200 μM, ICP-MS",without affecting Zn^2+ levels
same,ICP-MS cellular Ni,[3]; [7],2.92 µM and 2.63 µM
same,ICP-MS cellular Zn,[3]; [7],0.75 µM and 0.88 µM
same,Benzyl viologen hydrogenase assay (activity),[4]; 1.5625 μM,10.01 and 8.89
same,Benzyl viologen hydrogenase assay (activity),[4]; 3.125 μM,10.26 and 7.90
same,Benzyl viologen hydrogenase assay (activity),[4]; 6.25 μM,10.55 and 8.44
same,Benzyl viologen hydrogenase assay (activity),[4]; 12.5 μM,10.31 and 8.59
same,Benzyl viologen hydrogenase assay (activity),[4]; 25 μM,10.36 and 8.93
same,Benzyl viologen hydrogenase assay (activity),[4]; 50 μM,9.47 and 8.79
same,Benzyl viologen hydrogenase assay (activity),[4]; 100 μM,9.67 and 7.85
same,Benzyl viologen hydrogenase assay (activity),[4]; 200 μM,9.18 and 9.08
same,Benzyl viologen hydrogenase assay (activity),[4]; 400 μM,9.38 and 7.95
same,effect on [NiFe]-hydrogenase activity,"[4]; LB-glucose, anaerobic, whole cell",no impact on [NiFe]-hydrogenase activity
same,Specific activity (cell-free indophenol urease assay),urease; AMA 0.007813 mM,42.56 nmol/min/mg and 44.10 nmol/min/mg
same,Specific activity (cell-free indophenol urease assay),urease; AMA 0.015625 mM,40.68 nmol/min/mg and 41.88 nmol/min/mg
same,Specific activity (cell-free indophenol urease assay),urease; AMA 0.03125 mM,40.85 nmol/min/mg and 42.39 nmol/min/mg
same,Specific activity (cell-free indophenol urease assay),urease; AMA 0.0625 mM,40.85 nmol/min/mg
same,Specific activity (cell-free indophenol urease assay),urease; AMA 0.125 mM,39.49 nmol/min/mg and 40.51 nmol/min/mg
same,Specific activity (cell-free indophenol urease assay),urease; AMA 0.25 mM,37.95 nmol/min/mg and 38.29 nmol/min/mg
same,Specific activity (cell-free indophenol urease assay),urease; AMA 0.5 mM,35.56 nmol/min/mg and 36.75 nmol/min/mg
same,Specific activity (cell-free indophenol urease assay),urease; AMA 1 mM,35.04 nmol/min/mg and 35.73 nmol/min/mg
same,direct inhibition of urease,urease; cell-free extract,excluded the direct inhibition of urease
same,Growth of K. pneumoniae with urea as a sole nitrogen source (OD600),K. pneumoniae [5],1.19
same,Growth curve (culture density),K. pneumoniae [5]; 15.15 h,0.165 and 0.162
same,Growth curve (culture density),K. pneumoniae [5]; 16.15 h,0.186 and 0.183
same,Growth curve (culture density),K. pneumoniae [5]; 17.15 h,0.218 and 0.214
same,growth with urea as sole nitrogen source,K. pneumoniae [5]; Chelex-treated nitrogen-limited medium,not viable
same,bacterial viability (spot dilutions),K. pneumoniae [6],do not affect bacterial viability
same,bacterial viability (spot dilutions),S. aureus,not lethal to bacteria
same,cytotoxicity toward HEK293,"HEK293 cells; 48 h, up to 512 μg/mL (~1.4 mM)",no significant cytotoxicity
same,IC50 (HEK293 viability),"HEK293 cells; 48 h, highest tested 512 µg/mL (MG-132 62.5 µg/mL), Zn and Ni values of low confidence",Does no t fit to the mo del
same,HEK 293T cytotoxicity assay raw signal,HEK293 cells; AMA 0.5 μg/mL,625667 and 666020 and 709951
same,HEK 293T cytotoxicity assay raw signal,HEK293 cells; AMA 1 μg/mL,642619 and 585959 and 657816
same,HEK 293T cytotoxicity assay raw signal,HEK293 cells; AMA 2 μg/mL,663671 and 698910 and 700863
same,HEK 293T cytotoxicity assay raw signal,HEK293 cells; AMA 4 μg/mL,595054 and 606045 and 670753
same,HEK 293T cytotoxicity assay raw signal,HEK293 cells; AMA 8 μg/mL,579865 and 576275 and 764893
same,HEK 293T cytotoxicity assay raw signal,HEK293 cells; AMA 16 μg/mL,628738 and 611425 and 704710
same,HEK 293T cytotoxicity assay raw signal,HEK293 cells; AMA 32 μg/mL,627377 and 612979 and 683402
same,HEK 293T cytotoxicity assay raw signal,HEK293 cells; AMA 64 μg/mL,591894 and 576108 and 744283
same,HEK 293T cytotoxicity assay raw signal,HEK293 cells; AMA 128 μg/mL,558480 and 565965 and 608380
same,HEK 293T cytotoxicity assay raw signal,HEK293 cells; AMA 256 μg/mL,567074 and 538238 and 648309
same,HEK 293T cytotoxicity assay raw signal,HEK293 cells; AMA 512 μg/mL,571681 and 577586 and 600345

# Reference: paper PMC11091072, “Targeting bacterial nickel transport with aspergillomarasmine A suppresses virulence-associated Ni-dependent enzymes” (Nature Communications, 2024)
